Assays:
ABCF1 [1] = assay: real time RT-PCR for ABCF1 in RAW macrophages treated with Escitalopram; assay type: cell-based; details: 0.3 mM Escitalopram, 1 hour
Procedure: (§1) FIG. 1 illustrates that Escitalopram induces ABCF1 in a Macrophage cell line: RAW macrophages were plated at 1×10^5 cells/well and cultured for 2 days. The cells were incubated with 0.3 mM Escitalopram for 1 hour, and then harvested for total RNA, which was extracted for real time RT-PCR specific for ABCF1 and IL-4. CT values were normalized with CT value for the housekeeping gene from the DMSO control. The difference in the expression after drug treatment is consistent with polarization towards an M2-like phenotype (data were consistent in 3 separate experiments).

IL-4 = assay: real time RT-PCR for IL-4 in RAW macrophages treated with Escitalopram; assay type: cell-based; details: macrophage cell line (RAW); 0.3 mM Escitalopram, 1 hour; normalized to housekeeping gene, DMSO control
Procedure: as §1

ABCF1 [2] = details: peripheral blood mononuclear cells of patients responding to treatment; cited from earlier work
ABCF1 [3] = assay: qPCR of ABCF1 transcription in macrophage cell line RAW264.7 (dose response / time course); assay type: cell-based; details: 10 nM, 100 nM, 500 nM, 2 hours, normalized against GAPDH
Procedure: FIG. 3 illustrates the effect of psylocibin, psylocin and their analogs on ABCF1 transcription in a macrophage cell line. Briefly, the Macrophage cell line RAW264.7 (ATCC) were grown to 80% confluency in growth media (DMEM+ 10% FBS+ glutamine). Dilutions of psylocibin, psylocin and their analogs were made at desired final concentrations for a Dose response experiment. The concentrations' used for this experiment are: 10 nM, 100 nM, 500 nM for Psilocin, Psylocibin, 4-Acetoxy-N, N-dimthyltryptamine, O-Acetyl Psilocin Fumerate, and 4-acetoxyindole. The cells were incubated for 2 hours and then harvested for total RNA, which was extracted for real time RT-PCR specific for ABCF1. Untreated cells were used as negative control and Escitalopram at 0.3 mM was used as a positive control to activate ABCF1 expression for all the experiments. ES=escitalopram; PSYB=Psylocibin; PSIC=Psilocin; DMT=4-Acetoxy-N, N-dimthyltryptamine; APF=O-Acetyl Psilocin Fumerate, and AOI=4-acetoxyindole.
• 1. Macrophage cell line RAW264.7 (ATCC) were grown to 80% confluency in growth media (DMEM+10% FBS+glutamine). • 2. Dilutions of the drugs were made at desired final concentrations for a Dose response experiment. […]
• 1. […] Normalized against the expression level of GAPDH, the fold change expression level of ABCF1 was calculated and tabulated for all treatment conditions.

SMILES | ABCF1 induction (in words) (ABCF1 [1]; RAW macrophages) | induction of ABCF1 (ABCF1 [1]; macrophage cell line (RAW), normalized to housekeeping gene, DMSO control) | induction of IL-4 (IL-4) | ABCF1 transcription in PBMCs (ABCF1 [2]) | effect on ABCF1 transcription (ABCF1 [3])
CN(C)CCC[C@@]1(c2ccc(F)cc2)OCc2cc(C#N)ccc21 [Escitalopram] | induces ABCF1 | approximately 20 fold | approximately 5 fold | increased the transcription of a single gene: ABCF1 | –
CN(C)CCc1c[nH]c2cccc(OP(=O)(O)O)c12 [psylocibin, Psylocibin] | – | – | – | – | upregulate ABCF1 transcription
CN(C)CCc1c[nH]c2cccc(O)c12 [psylocin, Psilocin] | – | – | – | – | upregulate ABCF1 transcription
